Source: patent US20240158446A1, “CYCLIC COMPOUND HAVING SELECTIVE INHIBITORY ACTION ON KRAS OVER HRAS AND NRAS” (CHUGAI SEIYAKU KABUSHIKI KAISHA, priority 2021, published 2024)
Read-outs that look alike come from different tables or passages of the source. Where a SMILES comes first, the peptide text is derived from it. Bridges are numbered along the chain shown (N, C = ends). [ ]: non-standard residue; d: D form. The star is where a group is joined. hPhe(3-Cl-4-CF3) = N[C@@H](CCc1ccc(C(F)(F)F)c(Cl)c1)C(=O)O; NPrPhe(4-CF3) = CCCN[C@@H](Cc1ccc(C(F)(F)F)cc1)C(=O)O; NMeGly(cPent) = CN[C@H](C(=O)O)C1CCCC1; NMeD = CN[C@@H](CC(=O)O)C(=O)O; NMeL = CN[C@@H](CC(C)C)C(=O)O; Morpholide = C1CN(*)CCO1; Aze = O=C(O)[C@@H]1CCN1; Ac4c = NC1(C(=O)O)CCC1; Sar = CNCC(=O)O

What was measured:
[1] = target: GDP-bound KRAS wild-type protein (Homo sapiens, UniProt P01116); test: Binding to KRAS by surface plasmon resonance (SPR), Single Cycle Kinetics
[2] = target: GDP-bound NRAS wild-type protein (Homo sapiens, UniProt P01111); test: Binding to NRAS by surface plasmon resonance (SPR), Single Cycle Kinetics; details: for NRAS/KRAS (ratio of KD value with respect to GDP-bound NRAS wild-type protein to KD value with respect to KRAS): SPR KD ratio NRAS/KRAS, class symbols; for NRAS/KRAS (ratio of KD value for NRAS to KD value for KRAS): GDP-bound NRAS wild-type protein vs GDP-bound KRAS wild-type protein
[3] = target: GDP-bound HRAS wild-type protein (Homo sapiens, UniProt P01112); test: Binding to HRAS by surface plasmon resonance (SPR), Single Cycle Kinetics; details: for HRAS/KRAS (ratio of KD value with respect to GDP-bound HRAS wild-type protein to KD value with respect to KRAS): SPR KD ratio HRAS/KRAS, class symbols; for HRAS/KRAS (ratio of KD value for HRAS to KD value for KRAS): GDP-bound HRAS wild-type protein vs GDP-bound KRAS wild-type protein
[4] = test system: human lung cancer strain NCI-H441;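 also: cell proliferation inhibition after four days measured by CellTiter-Glo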
[5] = SPR Single Cycle Kinetics, GDP-bound KRAS wild-type protein, 1:1 binding model, read-out: KRAS KD
[6] = SPR, Single Cycle Kinetics, GDP-bound KRAS wild-type protein, read-out: KRAS KD
[7] = SPR, Single Cycle Kinetics, 1:1 binding model, GDP-bound KRAS wild-type protein, read-out: KRAS KD

GDP-bound KRAS wild-type protein, sequence (P01116 whole entry): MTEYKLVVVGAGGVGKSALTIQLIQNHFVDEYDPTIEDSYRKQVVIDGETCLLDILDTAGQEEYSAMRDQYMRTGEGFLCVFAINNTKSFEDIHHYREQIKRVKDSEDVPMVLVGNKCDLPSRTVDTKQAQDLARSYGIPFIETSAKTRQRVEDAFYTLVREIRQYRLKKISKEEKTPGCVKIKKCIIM
GDP-bound HRAS wild-type protein, sequence (P01112 whole entry): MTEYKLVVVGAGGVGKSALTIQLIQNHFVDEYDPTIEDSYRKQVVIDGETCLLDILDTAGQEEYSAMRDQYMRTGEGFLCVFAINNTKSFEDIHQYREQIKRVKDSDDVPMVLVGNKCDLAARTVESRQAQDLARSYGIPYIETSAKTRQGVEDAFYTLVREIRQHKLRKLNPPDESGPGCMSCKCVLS
GDP-bound NRAS wild-type protein, sequence (P01111 whole entry): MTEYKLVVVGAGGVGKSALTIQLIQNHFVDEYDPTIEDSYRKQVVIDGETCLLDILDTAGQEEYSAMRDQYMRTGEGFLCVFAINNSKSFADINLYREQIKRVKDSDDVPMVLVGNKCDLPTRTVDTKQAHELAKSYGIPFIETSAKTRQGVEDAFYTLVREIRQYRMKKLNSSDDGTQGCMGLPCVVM

SMILES	Kd [1, 5]	IC50 [4]	Kd [1, 6]	NRAS/KRAS (ratio of KD value for NRAS to KD value for KRAS) ([2]; SPR)	HRAS/KRAS (ratio of KD value for HRAS to KD value for KRAS) ([3]; SPR)	also measured
CCC[C@H]1C(=O)N[C@@H]([C@@H](C)CC)C(=O)N(C2CC2)CC(=O)N(C)[C@H]2C/C=C\CCN(C2=O)[C@@H](Cc2ccc(C(F)(F)F)cc2)C(=O)N(C)CC(=O)N[C@@H](CCc2cc(F)c(C(F)(F)F)c(F)c2)C(=O)N2C[C@H](OCC)C[C@H]2C(=O)NC2(CC(C)(C)C2)C(=O)N(C)[C@@H](CC2CCC2)C(=O)N(C)[C@H](C(=O)N(C)C)CC(=O)N1C [PP2768]	5.5 nM	120 nM				NRAS/KRAS (ratio of KD value with respect to GDP-bound NRAS wild-type protein to KD value with respect to KRAS) [2]: A (a compound having 10 or more and less than 20 is denoted as A); HRAS/KRAS (ratio of KD value with respect to GDP-bound HRAS wild-type protein to KD value with respect to KRAS) [3]: A (a compound having 10 or more and less than 20 is denoted as A)
CCCOC[C@H]1C(=O)N[C@@H]([C@@H](C)CC)C(=O)N(C)CC(=O)N(C)[C@H]2C/C=C\CCN(C2=O)[C@@H](Cc2ccc(C)cc2)C(=O)N(C)CC(=O)N[C@@H](CCc2ccc(C(F)(F)F)c(Cl)c2)C(=O)N2C[C@@H](C)C[C@H]2C(=O)NC2(CC(C)(C)C2)C(=O)N(C)[C@@H](C2CCCC2)C(=O)N(C)[C@H](C(=O)N(C)C)CC(=O)N1C [PP2453]		9.2 nM	0.09 nM	A (a compound having 10 or more and less than 20 is denoted as A)	A (a compound having 10 or more and less than 20 is denoted as A)	
CCO[C@@H]1C[C@H]2C(=O)NC3(CCC3)C(=O)N(C)[C@@H](C(CC)CC)C(=O)N(C)[C@H](C(=O)N3CCOCC3)CC(=O)N(C)[C@@H](CC(C)C)C(=O)N[C@@H]([C@@H](C)CC)C(=O)N(C)CC(=O)N(C)[C@H]3C/C=C\CCN(C3=O)[C@@H](Cc3ccc(C(F)(F)F)cc3)C(=O)N(C)CC(=O)N[C@@H](CCc3cc(F)c(C(F)(F)F)c(F)c3)C(=O)N2C1 [PP1287]		49.7 nM				Kd [1, 7]: 0.56 nM; NRAS/KRAS (ratio of KD value for NRAS to KD value for KRAS) ([2]; SPR, KD ratio class): AA (a compound having 20 or more is denoted as AA); HRAS/KRAS (ratio of KD value for HRAS to KD value for KRAS) ([3]; SPR, KD ratio class): A (a compound having 10 or more and less than 20 is denoted as A)
CCC[C@H]1C(=O)N[C@@H]([C@@H](C)CC)C(=O)N(C2CC2)CC(=O)N(C)[C@H]2C/C=C\CCN(C2=O)[C@@H](Cc2ccc(C)cc2)C(=O)N(C)CC(=O)N[C@@H](CCc2ccc(Cl)c(Cl)c2)C(=O)N2C[C@H](OCC)C[C@H]2C(=O)NC2(CC(C)(C)C2)C(=O)N(C)[C@@H](CC2CCC2)C(=O)N(C)[C@H](C(=O)N(C)C)CC(=O)N1C [PP2761]	2.8 nM	68.4 nM				NRAS/KRAS (ratio of KD value with respect to GDP-bound NRAS wild-type protein to KD value with respect to KRAS) [2]: A (a compound having 10 or more and less than 20 is denoted as A); HRAS/KRAS (ratio of KD value with respect to GDP-bound HRAS wild-type protein to KD value with respect to KRAS) [3]: A (a compound having 10 or more and less than 20 is denoted as A)
CCC(CC)[C@H]1C(=O)N(C)[C@H](C(=O)N2CCCCC2)CC(=O)N(C)[C@@H](COC)C(=O)N[C@@H]([C@@H](C)CC)C(=O)N(C)CC(=O)N(C)[C@H]2C/C=C\CCN(C2=O)[C@@H](Cc2ccc(C(F)(F)F)cc2)C(=O)N(C)CC(=O)N[C@@H](CCc2cc(F)c(C(F)(F)F)c(F)c2)C(=O)N2C[C@H](OC(C)C)C[C@H]2C(=O)NC2(CC(C)(C)C2)C(=O)N1C [PP2608]	1.4 nM	53 nM				NRAS/KRAS (ratio of KD value with respect to GDP-bound NRAS wild-type protein to KD value with respect to KRAS) [2]: AA (a compound having 20 or more is denoted as AA); HRAS/KRAS (ratio of KD value with respect to GDP-bound HRAS wild-type protein to KD value with respect to KRAS) [3]: A (a compound having 10 or more and less than 20 is denoted as A)
CCC[C@H]1C(=O)N[C@@H]([C@@H](C)CC)C(=O)N(C2CC2)CC(=O)N(C)[C@H]2C/C=C\CCN(C2=O)[C@@H](Cc2ccc(C(F)(F)F)cc2)C(=O)N(C)CC(=O)N[C@@H](CCc2cc(F)c(C(F)(F)F)c(F)c2)C(=O)N2C[C@H](OCC)C[C@H]2C(=O)N(C)C2(CCC2)C(=O)N(C)[C@@H](C2CCCC2)C(=O)N(C)[C@H](C(=O)N2CCCCC2)CC(=O)N1C [PP3110]			4.3 nM	A (a compound having 10 or more and less than 20 is denoted as A)	A (a compound having 10 or more and less than 20 is denoted as A)	Kd ([1]; SPR, Single Cycle Kinetics, 1:1 binding model, read-out: KD value with respect to GDP-bound KRAS wild-type protein): 4.3 nM; ratio of the KD value with respect to GDP-bound NRAS wild-type protein to the KD value with respect to KRAS ([2]; SPR, KD(NRAS)/KD(KRAS)): A (a compound having 10 or more and less than 20 is denoted as A); ratio of the KD value with respect to GDP-bound HRAS wild-type protein to the KD value with respect to KRAS ([3]; SPR, KD(HRAS)/KD(KRAS)): A (a compound having 10 or more and less than 20 is denoted as A); IC50 ([4]; read-out: NCI-H441 cell proliferation inhibitory activity, 50% proliferation inhibitory concentration (IC50 value), NCI-H441, four days, CellTiter-Glo): 69.9 nM
CCC[C@H]1C(=O)N[C@@H]([C@@H](C)CC)C(=O)N(C)CC(=O)N(C)[C@H]2C/C=C\CCN(C2=O)[C@@H](CC2CCCCC2)C(=O)N(C)CC(=O)N[C@@H](CCc2ccc(C(F)(F)F)c(OC)c2)C(=O)N2C[C@@H](C)C[C@H]2C(=O)N(C)C2(CCC2)C(=O)N(C)[C@@H](C2CCCC2)C(=O)N(C)[C@H](C(=O)N(C)C)CC(=O)N1C [PP2370]		25.7 nM	0.54 nM	B (a compound having 3 or more and less than 10 is denoted as B)	B (a compound having 3 or more and less than 10 is denoted as B)	
CCO[C@@H]1C[C@H]2C(=O)NC3(CCC3)C(=O)N(C)[C@@H](C3CCCC3)C(=O)N(C)[C@H](C(=O)N(C)C)CC(=O)N(C)[C@@H](Cc3cccc(C#N)c3)C(=O)N[C@@H]([C@@H](C)CC)C(=O)N(C)CC(=O)N(C)[C@H]3CCCCCN(C3=O)[C@@H](Cc3ccc(C(F)(F)F)cc3)C(=O)N(C)CC(=O)N[C@@H](CCc3cc(F)c(C(F)(F)F)c(F)c3)C(=O)N2C1 [PP1172]		48.3 nM	0.17 nM	B (a compound having 3 or more and less than 10 is denoted as B)	B (a compound having 3 or more and less than 10 is denoted as B)	
CCCN1C(=O)[C@@H]2CCN2C(=O)CN(C)C(=O)[C@H]([C@@H](C)CC)NC(=O)[C@H](CC(C)C)N(C)C(=O)C[C@@H](C(=O)N2CCOCC2)N(C)C(=O)[C@H](C2CCCC2)N(C)C(=O)C2(CCC2)NC(=O)[C@@H]2CCCN2C(=O)[C@H](CCc2ccc(C(F)(F)F)c(Cl)c2)NC(=O)CN(C)C(=O)[C@@H]1Cc1ccc(C(F)(F)F)cc1 [PP0407] ([NMeL]I[Sar][Aze][NPrPhe(4-CF3)][Sar][hPhe(3-Cl-4-CF3)]P[Ac4c][NMeGly(cPent)][NMeD]-Morpholide; lactam N-11)	0.11 nM	7.6 nM		C (A compound having a KD ratio of 0.1 or more and less than 3 is denoted as C)	B (a compound having 3 or more and less than 10 is denoted as B)	
CC[C@H](C)[C@@H]1NC(=O)[C@H](CC)N(C)C(=O)C[C@@H](C(=O)N(C)C)N(C)C(=O)[C@H](C2CCCC2)N(C)C(=O)C2(CCC2)NC(=O)[C@@H]2CC(F)(F)CN2C(=O)[C@H](CCc2cc(F)c(C(F)(F)F)c(F)c2)NC(=O)CN(C)C(=O)[C@H](CC2CCCCC2)N2CC/C=C\C[C@@H](C2=O)N(C)C(=O)CN(C)C1=O [PP1462, (2S,8S,14S,20S,23S,27S,30S,36S,38Z)-2-(cyclohexylmethyl)-20-cyclopentyl-8-[2-[3,5-difluoro-4-(trifluoromethyl)phenyl]ethyl]-27-ethyl-12,12-difluoro-N,N,4,19,22,26,32,35-octamethyl-30-[(1S)-1-methylpropyl]-3,6,9,15,18,21,25,28,31,34,42-undecaoxo-spiro[1,4,7,10,16,19,22,26,29,32,35-undecazatricyclo[34.5.1.0^10,14]dotetracont-38-ene-17,1′-cyclobutane]-23-carboxamide]		27.5 nM				Kd [1, 7]: 0.12 nM; NRAS/KRAS (ratio of KD value for NRAS to KD value for KRAS) ([2]; SPR, KD ratio class): A (a compound having 10 or more and less than 20 is denoted as A); HRAS/KRAS (ratio of KD value for HRAS to KD value for KRAS) ([3]; SPR, KD ratio class): A (a compound having 10 or more and less than 20 is denoted as A)
CCOC[C@H]1C(=O)N[C@@H]([C@@H](C)CC)C(=O)N(C)CC(=O)N(C)[C@H]2C/C=C\CCN(C2=O)[C@@H](CC2CCCCC2)C(=O)N(C)CC(=O)N[C@@H](CCc2ccc(C(F)(F)F)c(Cl)c2)C(=O)N2C[C@H](OCC)C[C@H]2C(=O)NC2(CC(C)(C)C2)C(=O)N(C)[C@@H](C(CC)CC)C(=O)N(C)[C@H](C(=O)N(C)C)CC(=O)N1C [PP2488]		171 nM	1.6 nM	A (a compound having 10 or more and less than 20 is denoted as A)	A (a compound having 10 or more and less than 20 is denoted as A)	
